Earlier results in patent publication US20240180950A1, “Prevention and Treatment of Post-Infection Neurological Disorders and Clotting/Thrombotic Disorders” (priority 2021, published 2024).

Conditions: 250 mg, 500 mg, 1000 mg, 2000 mg, and 4000 mg per day, per person, in 2 or 3 divided doses

SMILES: Nc1nc2c(ncn2[C@@H]2O[C@H](COP(=O)(O)O)[C@@H](O)[C@H]2O)c(=O)[nH]1 [guanosine monophosphate]
- safety of daily human doses of guanosine monophosphate: safe
